Our source for the GI50 and TGI values is PubChem BioAssay (NCI).

Molecules are shown by their SMILES. Where “and” joins values, the source holds several entries; their conditions need not be identical. Equal values may be shown once.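 Values below derive from 48-hour exposures of cells grown in 96-well plates, with endpoints linearly interpolated between the two concentrations bracketing the appropriate inhibition level. GI50 = concentration required for 50% inhibition of growth. Definition used: TGI = concentration required for complete inhibition of growth.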 Some results are limits rather than exact numbers.

Common to all, as to assay: NCI tumour cell line growth inhibition, 48 h
Test [1] deals with TK-10 renal.
Test [2] deals with OVCAR-4 ovarian.
Test [3] relates to 786-0 renal.
Test [4] deals with MALME-3M melanoma.
In test [5] the test system is UACC-62 melanoma.
Test [6] deals with RPMI-8226 leukemia.
Test [7] relates to SN12C renal.
In test [8] the test system is OVCAR-5 ovarian.
The test system of test [9] is SNB-75 CNS.
Test [10] deals with HOP-92 NSCLC.

On to `COc1cc(C(O)c2nc3ccccc3s2)cc(OC)c1OC` (centres undefined), for which the GI50 was 47.3 µM in test [1]; 30.9 µM in test [2]; over 100 µM in test [3]; 21.4 µM in test [4]; 37.8 µM in test [5]; 7.9 µM in test [6]. The GI50 in [7] is over 100 µM; in test [8], over 100 µM; in test [9], 33.2 µM; in test [10], 1.15 µM. Moreover, the TGI in test [1], in [2], in [3], in test [4], in test [5] and in test [6] was over 100 µM each time. Further, the TGI in test [7] was over 100 µM; in test [8], over 100 µM; in test [9], over 100 µM; in test [10], 31.2 µM.
Turning to `COc1ccc(C(=O)COc2cccc(/C=C3\CSc4ccccc4C3=O)c2)cc1`, the GI50 was 2.73 µM in test [1]; 2.79 µM in [2]; 1.75 µM in test [3]; 2.2 µM in [4]; 1.72 µM in test [5]; 0.342 µM in test [6]. The GI50 in test [7] was 2.63 µM; in test [8], 2.18 µM; in test [9], 4.85 µM; in test [10], 2.4 µM. For the same compound, the TGI in [1] is 9.79 µM; in test [2], 9.87 µM; in [3], 3.69 µM; in test [4], 5.58 µM; in test [5] it was 3.3 µM; in test [6], 3.69 µM. Besides, the TGI in [7] stood at 8.31 µM; in [8] it was 4.77 µM; in test [9], 18.4 µM; in test [10], 9.08 µM.
On to `O=C1/C(=C/c2ccccc2F)CNC/C1=C\c1ccccc1F`, for which the GI50 is 2.92 µM and 1.51 µM in [1]; 0.596 µM and 0.385 µM in test [2]; 0.233 µM and 0.739 µM in test [3]; 2.26 µM and 1.83 µM in test [4]; 6.38 µM and 1.5 µM in test [5]; 0.191 µM and 0.22 µM in test [6]. Moreover, the GI50 in [7] was 0.837 µM and 0.783 µM; in test [8], 0.935 µM and 1.91 µM; in test [9], 2 µM and 1.54 µM; in [10], 2.82 µM and 1.92 µM. The TGI is 8.48 µM and 3.5 µM in test [1]; 2.98 µM and 1.81 µM in test [2]; 0.505 µM and 2.15 µM in [3]; 6.38 µM and 4.51 µM in test [4]; 10.3 µM and 3.72 µM in [5]; 0.697 µM and 0.563 µM in [6]. Also, the TGI in test [7] was 2.05 µM and 2.81 µM; in test [8], 2.34 µM and 3.96 µM; in [9] it was 4.74 µM and 4.33 µM; in test [10], 7.37 µM and 4.71 µM.
As for `O=C1c2ccc3c4c5ccc(c24)C(=O)N1CCCOCCCCOCCCNCc1ccc(cc1)CNCCCOCCCCOCCCN(C3=O)C5=O`, the GI50 was 1.03 µM in test [1]; 0.567 µM in test [2]; 0.956 µM in test [3]; 0.628 µM in test [4]; 0.889 µM in [5]; 0.93 µM in test [6]. Moreover, the GI50 in test [7] is 0.816 µM; in test [8] it was 0.944 µM; in test [9], 0.724 µM; in [10], 0.782 µM. In addition, the TGI is 2.42 µM in test [1]; 1.18 µM in test [2]; 2.02 µM in test [3]; 1.3 µM in test [4]; 1.63 µM in test [5]; 2.49 µM in test [6]. Moreover, the TGI in test [7] was determined as 1.53 µM; in test [8], 1.81 µM; in test [9] it was 1.48 µM; in test [10], 2.08 µM.
In the case of `CN(c1ccc(NC(=O)Nc2ccc(OC(F)(F)F)cc2)cc1)c1ccnc(Nc2cccc(S(N)(=O)=O)c2)n1`, the GI50 in test [1] is 6.21 µM; in [2], 3.06 µM; in test [3] it was 5.25 µM; in test [4] it was 3.84 µM; in test [5], 3.02 µM; in test [6] it was 2.7 µM. Further, the GI50 was 2.27 µM in [7], 5.47 µM in test [8], 2.38 µM in [9] and 2.36 µM in test [10]. Moreover, the TGI in test [1] was 13 µM; in [2], 8.03 µM; in test [3], 12 µM; in [4], 8.34 µM; in test [5] it was 7.13 µM; in [6], 10.1 µM. In addition, the TGI in [7] was 11.5 µM; in [8], 13.7 µM; in test [9], 6.61 µM; in test [10] it was 6.95 µM.
For `C=C(C)C(=O)OC1CC2=CC(CC3(C)OC3C3OC(=O)C(=C)C13)OC2=O` (centres undefined), the TGI was determined as 15.3 µM in test [1]; 29.9 µM in test [2]; 20.5 µM in test [3]; 13.3 µM in test [4]; 22 µM in test [5]; 2.75 µM in test [6]. For the same compound, the TGI was found to be 26.8 µM in test [7], 34.6 µM in test [8], 28.5 µM in test [9] and 7.35 µM in test [10]. Moreover, the GI50 in test [6] was 0.865 µM.
In the case of `CS(=O)(=O)OCCn1cnc2nc(NC(=O)c3ccccc3)[nH]c(=O)c21`, the TGI in [1], in [2], in [3], in test [4], in test [5] and in test [6] was over 100 µM in each case. Further, the TGI in test [7], in test [8], in [9] and in [10] was over 100 µM throughout.
With `Cn1c(=O)c(Oc2ccc(F)cc2F)cc2cnc(NC(CO)CO)nc21`, the GI50 in test [1], in test [2], in test [3], in test [4], in test [5] and in test [6] was over 25 µM each time. For the same compound, the GI50 was over 25 µM in test [7], over 25 µM in test [8], over 25 µM in test [9] and 14.7 µM in test [10]. Also, the TGI in test [1], in [2], in test [3], in test [4], in test [5] and in test [6] was over 25 µM throughout. Also, the TGI in [7], in test [8], in test [9] and in [10] was over 25 µM each time.
With `O=C1C=C[C@@]23C[C@@H](Nc4c(O)c5c6c(c42)=NCCC=6C=N5)SC3=C1`, the TGI was 27.7 µM in test [1]; 3.27 µM in test [2]; 14.6 µM in test [3]; 2.52 µM in [4]; 3.31 µM in test [5]; over 34.6 µM in test [6]. For the same compound, the TGI in [7] amounted to 5.16 µM; in test [8], 9.5 µM; in test [9], 25.3 µM; in test [10], 10.2 µM. Further, the GI50 was 1.83 µM in [2]; 4.34 µM in test [3]; 1.64 µM in test [5]; 3.13 µM in test [6]; 2.36 µM in [7]; 5.13 µM in test [8]. In addition, the GI50 in [9] is 12 µM; in test [10], 3.18 µM.
As to `CC(=O)Nc1ccc(/C=N\N2C(=O)c3ccccc3C2=O)cc1`, the TGI in [1], in test [2], in [3], in test [4], in [5] and in test [6] was over 100 µM each time. Also, the TGI in test [7], in [8], in test [9] and in test [10] was over 100 µM in each case.
`C/C([O-])=C1\Cc2ccccc2C1=O.C/C([O-])=C1\Cc2ccccc2C1=O.CC[O-].CC[O-].[Ti+4]`: the GI50 in test [1] was 32.2 µM; in test [2], 27.2 µM; in test [3] it was 20.8 µM; in test [4] it was 18.8 µM; in [5] it was 12.4 µM; in test [6] it was 14.8 µM. Further, the GI50 in [7] was 21.5 µM; in test [8], 30.5 µM; in test [9], 21.6 µM; in [10], 18.7 µM. The TGI in test [1] was over 100 µM; in test [2], over 84.5 µM; in [3] it was 77.6 µM; in test [4] it was over 59.8 µM; in test [5], 31.6 µM; in test [6], 68.8 µM. Besides, the TGI in test [7] is over 81.6 µM; in [8] it was 72.9 µM; in test [9], 45.9 µM; in test [10] it was 55.4 µM.
Consider `O=c1[nH]nc2ccccc2c1Cl`, for which the TGI stood at 33 µM in test [1]; 23.8 µM in test [2]; 28.4 µM in test [3]; 31 µM in [4]; 25.6 µM in [5]; 8.87 µM in test [6]. Moreover, the TGI in [7] is 34.2 µM; in [8], 33.9 µM; in [9] it was 47.1 µM; in test [10], 12.3 µM.
As for `Nc1ncnc2c1ncn2CC(O)C(=O)O` (centres undefined), the TGI in test [1], in test [2], in test [3], in test [4], in test [5] and in test [6] was over 100 µM throughout. Besides, the TGI in test [7], in test [8], in [9] and in [10] was over 100 µM in each case.
Take `CCc1cccc2c3c(sc12)C(c1ccc(Cl)cc1)C(C#N)=C(N)O3` (centres undefined): the GI50 in test [1] was 3.18 µM; in test [2] it was 1.7 µM; in [3], 0.94 µM; in test [4], 0.712 µM; in test [5] it was 0.351 µM; in [6], 0.442 µM. Moreover, the GI50 in test [7] was 0.805 µM; in test [8], 1.42 µM; in test [9], 0.195 µM; in test [10], 0.753 µM. Besides, the TGI stood at 15.4 µM in test [1]; 17.3 µM in test [2]; 14.7 µM in [3]; 9.9 µM in test [4]; 5.27 µM in test [5]; 7.95 µM in test [6]. The TGI is 12.5 µM in test [7], 8.93 µM in test [8], 0.718 µM in test [9] and 6.92 µM in test [10].
